Reference: PubChem BioAssay (NCI)
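Assay format: 96-well plates, 48-hour exposure. Definition used: TGI = concentration required for complete inhibition of growth.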

Key:
Test in all cases: NCI anticancer screen, dose series, 48 h
ACHN renal = test system: ACHN renal
DU-145 prostate = test system: DU-145 prostate
UACC-62 melanoma = test system: UACC-62 melanoma
NCI-H522 lung = test system: NCI-H522 lung
IGROV1 ovarian = test system: IGROV1 ovarian
RXF 393 renal = test system: RXF 393 renal
MALME-3M melanoma = test system: MALME-3M melanoma
UACC-257 melanoma = test system: UACC-257 melanoma
SF-268 CNS = test system: SF-268 CNS
HS 578T breast = test system: HS 578T breast
HL-60(TB) leukemia = test system: HL-60(TB) leukemia

Row | SMILES | TGI (ACHN renal) [µM] | TGI (DU-145 prostate) [µM] | TGI (UACC-62 melanoma) [µM] | TGI (NCI-H522 lung) [µM] | TGI (IGROV1 ovarian) [µM] | TGI (RXF 393 renal) [µM] | TGI (MALME-3M melanoma) [µM] | TGI (UACC-257 melanoma) [µM] | TGI (SF-268 CNS) [µM] | TGI (HS 578T breast) [µM] | TGI (HL-60(TB) leukemia) [µM]
1 | COc1cc(C2c3cc4c(cc3OC(O)C2C)OCO4)cc(OC)c1O (stereo unspecified) | > 100 | > 100 | 52.4 | 13.3 | > 100 | > 43 | 29.4 | > 100 | > 100 | 46.4 | 20.2
2 | CC(C)C(/C=C/c1ccc(Cl)cc1)=N\NC(=S)NN | 65.6 | > 100 | 30.5 | 32.4 | > 100 | 96.6 | > 100 | 98.9 | > 100 | 72.3 | 30.7
3 | O=C1c2cccnc2-c2nccc3ccnc1c23 | 1.46 | 2.65 | 1.88 | 0.666 | 2.12 | 2.52 | 3.28 | 2.27 | 6.58 | > 28.3 | 0.185
4 | CO[C@H]1C[C@H](O[C@H]2CC[C@]3(C=O)[C@H]4CC[C@]5(C)[C@@H](C6=CC(=O)OC6)CC[C@]5(O)[C@@H]4CC[C@]3(O)C2)O[C@H](C)[C@H]1O[C@@H]1O[C@H](CO[C@@H]2O[C@H](CO)[C@@H](O)[C@H](O)[C@H]2O)[C@@H](O)[C@H](O)[C@H]1O | 0.135 | 0.0413 | 0.467 | 0.0638 | 0.825 | 0.0802 | 0.243 | 1.27 | 0.164 | 0.518 | 0.2
5 | CC1=C/C(=C(/c2ccc(O)c(C)c2)c2ccccc2C(=O)O)C=CC1=O | 32.2 | 35.6 | 30.9 | 42.7 | 34.1 | 33.8 | 46.8 | 35.8 | 57.1 | 52 | 43.6
6 | CC(=O)O[C@H]1C(=O)[C@@]2(C)[C@H]([C@H](OC(=O)c3ccncc3)[C@]3(O)C[C@H](OC(=O)[C@H](O)[C@@H](NC(=O)c4ccccc4)c4ccccc4)C(C)=C1C3(C)C)[C@]1(OC(C)=O)CO[C@@H]1C[C@@H]2O | > 25 | > 25 | > 25 | 10.2 | > 25 | > 23.3 | > 25 | > 25 | > 25 | > 21 | 1.63
7 | CCCCC/C(=N\c1nc[nH]c1C(N)=O)OCC | > 100 | > 100 | > 100 | > 100 | > 100 | > 100 | > 100 | > 100 | > 100 | > 100 | > 100
8 | Nc1nc(Cl)cc(NCC2(CO)CC(Cc3ccccc3)C2)n1 (stereo unspecified) | > 100 | > 100 | > 100 | > 100 | > 100 | > 93.5 | > 100 | > 82.3 | > 31.6 | > 100 | > 46.4
9 | Cc1cccc(C(O)c2ccccn2)c1O (stereo unspecified) | > 100 | > 100 | > 100 | > 100 | > 100 | > 100 | > 100 | > 100 | > 100 | > 100 | > 100
10 | O=C1NCN(c2ccccc2)C12CCN(CCCSc1ccc(F)cc1)CC2 | > 80.5 | > 100 | > 69 | > 100 | 51.3 | > 100 | 52.7 | 8.21 | > 100 | > 100 | > 63.6
11 | c1ccc(-c2cc(-c3cc(-c4ccccc4)no3)on2)cc1 | > 100 | > 100 | > 100 | > 100 | > 100 | > 100 | > 100 | > 100 | > 100 | > 100 | > 100
12 | N=C(N)c1ccc(-c2ccc(-c3ccc(C(=N)N)cc3)o2)cc1 | > 100 | > 100 | > 100 | > 100 | > 100 | > 100 | > 100 | 87.2 | > 100 | 56.9 | > 100
13 | CCNC(=O)Cc1nc2c(=O)[nH]cnc2n1C1OC(CO)C(O)C1O (stereo unspecified) | > 100 | > 100 | > 100 | > 100 | > 100 | > 100 | > 100 | > 100 | > 100 | > 100 | > 100
14 | CCOC(=O)C1C(=O)CC(C)(O)C(C(=O)OCC)C1c1ccc(OC)cc1 (stereo unspecified) | > 100 | > 100 | > 100 | > 100 | > 100 | > 100 | > 100 | > 100 | > 100 | > 100 | > 100
15 | [O-][n+]1onc2c1-c1nonc1CC2 | 88.2 | > 100 | > 100 | 95.1 | > 100 | 69.5 | 54 | 59.4 | > 100 | 66.8 | 96.2
16 | CN(C)N1C(=O)CC2(CCN(CCCC(=O)c3ccc(F)cc3)CC2)C1=O | > 100 | > 100 | > 100 | > 100 | > 100 | > 100 | > 100 | > 100 | > 100 | > 100 | > 100

Row | SMILES | TGI (ACHN renal) [µM] | TGI (DU-145 prostate) [µM] | TGI (UACC-62 melanoma) [µM] | TGI (NCI-H522 lung) [µM] | TGI (IGROV1 ovarian) [µM] | TGI (RXF 393 renal) [µM] | TGI (MALME-3M melanoma) [µM] | TGI (UACC-257 melanoma) [µM] | TGI (SF-268 CNS) [µM] | TGI (HS 578T breast) [µM] | TGI (HL-60(TB) leukemia) [µM]
17 | O=C(NC1CCN(Cc2ccccc2)CC1)c1ccccc1I | > 100 | > 100 | 34.9 | 27.6 | > 100 | > 100 | 31.6 | 38 | > 100 | 50.2 | > 100
18 | C(=N/Nc1ccccn1)/c1cccnc1 | > 100 | > 100 | > 100 | > 100 | > 100 | > 100 | > 100 | > 100 | > 100 | > 100 | > 100
19 | Nc1nc(Cl)cc(NCC2(CO)CCC(OCc3ccccc3)C2)n1 (stereo unspecified) | > 100 | > 100 | > 100 | 37.9 | > 100 | > 100 | 97.2 | 45.1 | > 100 | 43.9 | 86.8
20 | CCOC(=O)C(SCCO)C(C(=O)OCC)n1cc(C)c(=O)[nH]c1=O (stereo unspecified) | > 57.1 | > 100 | 40 | 17.6 | > 65.4 | 43.7 | 38.6 | > 84.6 | > 100 | > 100 | 4.88
21 | CCC(CCCCC1CC[C@H]2CC(=O)C[C@@H]12)OC (stereo partly specified) | > 100 | > 100 | > 100 | > 100 | > 100 | > 100 | > 100 | > 100 | > 100 | > 100 | > 100
22 | CCC(C)(C)c1ccc(Oc2cccc(C(=O)O)c2)cc1 | > 100 | > 100 | > 100 | 89.9 | > 100 | > 100 | > 100 | > 100 | > 100 | > 100 | > 100
23 | CC1(CC(=O)OC(C#C[Si](C)(C)C)Cc2ccccc2)OCCO1 (stereo unspecified) | > 100 | > 100 | > 100 | > 100 | > 100 | > 100 | > 100 | > 100 | > 100 | > 100 | > 100
24 | O=C1/C(=C/c2cccc([N+](=O)[O-])c2)N=C(c2ccccc2)N1c1ccc2c(c1)Sc1cc(N3C(=O)/C(=C/c4cccc([N+](=O)[O-])c4)N=C3c3ccccc3)ccc1N2 | > 100 | > 100 | 31.7 | 41.9 | 45.3 | 62.2 | 41.1 | 37.5 | 40.5 | > 100 | 64.6
25 | CN(CCNC(=O)c1cc(-c2ccccc2)nc2ccccc12)CCNC(=O)c1cc(-c2ccccc2)nc2ccccc12 | > 100 | > 95.5 | 39.5 | > 47.5 | > 100 | > 57.7 | 4.09 | 10.2 | > 100 | 99.4 | 24.9
26 | CC(C)(C)C1=NN=C2c3ccccc3C(=O)C21 (stereo unspecified) | > 100 | > 100 | > 100 | > 100 | > 100 | > 100 | > 100 | > 100 | > 100 | 82.1 | > 100
27 | O=c1[nH][nH]c(=S)c(=O)[nH]1 | > 100 | > 100 | > 100 | > 100 | > 100 | > 100 | > 100 | > 100 | > 100 | > 100 | > 100
28 | Clc1ccc(CSCc2ccc(Cl)cc2Cl)c(Cl)c1 | > 100 | > 100 | > 100 | 74 | > 100 | 94.2 | 72.5 | 64.7 | > 100 | > 100 | > 100
29 | CC1(c2nc3cc(Cl)c(Cl)cc3[nH]2)CCC(C(=O)O)C(C)(C)O1 (stereo unspecified) | > 100 | > 100 | > 100 | > 100 | > 100 | > 100 | > 100 | > 100 | > 100 | > 100 | > 100
30 | Cc1ccc2nc(Cl)c(/C=N/N3C(=O)/C(=C/Cc4ccco4)N=C3c3ccccc3)cc2c1 | > 100 | > 79.5 | > 100 | 74 | 53.9 | > 100 | > 100 | 71.8 | 70.6 | > 86.2 | 55.9
31 | COc1ccc(C2Oc3c(cccc3OC)C=C2[N+](=O)[O-])cc1 (stereo unspecified) | 3.38 | 16.4 | 5.72 | 3.02 | 9.3 | 2.7 | 10 | 19 | 11.3 | 8.82 | > 100
